Patent US12673954B2 (BRISTOL-MYERS SQUIBB COMPANY, priority 2021, dated 2026)
Read-outs that look alike come from different tables or passages of the source.

What was measured:
[1] = test system: IRF pathway, THP1-Dual™ cells; assay: STING reporter assay in THP1-Dual cells, IRF pathway (Lucia luciferase, QUANTI-Luc); assay type: cell-based, human; settings: THP1-Dual cells, 10% human plasma, 20 hours, Lucia luciferase, 100% activation = 100 μM cGAMP, read-out: IRF (EC50 μM)
Description: (§1) THP1-Dual™ cells were derived from the human THP-1 monocyte cell line by stable integration of two inducible reporter constructs. To this end, THP1-Dual™ cells allow the simultaneous study of the NF-κB pathway, by monitoring the activity of SEAP, and the IRF pathway by assessing the activity of a secreted luciferase (Lucia). Both reporter proteins are readily measurable in the cell culture supernatant when using QUANTI-Blue™, a SEAP detection reagent, and QUANTI-Luc™, a luciferase detection reagent.
(§2) THP1-Dual™ cells induce the activation of NF-κB in response to STING agonists. They also trigger the IRF pathway upon stimulation with STING agonists, such as cGAMP. Here, the THP-1-Dual cells were used to assess STING specific binders for function on the cellular level.
(§3) Serial dilutions of compounds in DMSO were added to low volume 384 well plates at 100 nl/well using an ECHO acoustic dispenser (Labcyte, model 550) to achieve final starting concentration of 100 μM in cell suspension. […] One column of the plate was reserved for treatment with cGAMP at 100 μM for 100% activation calculation and one column for no treatment (DMSO only) for baseline activation. Plates were then incubated in 37° C. incubator at 5% CO2 for 20 hours.
(§4) Plates were read on the Envision (Perkin Elmer) at 620 nm wavelength (OD620). In the luciferase assay, 5 μl of Quantiluc (Invivogen, Rep-qlc2) is added to white 384 well plates seeded with THP1 cells and read at 5 minutes on the Envision (Perkin Elmer) using a luminescence protocol (RLU). 100% activation was determined by value (RLU) of THP-1 Dual STING cells stimulated with 100 μM cGAMP (Invivogen, cat #TLRL-NACGA23-5).

[2] = test system: NF-κB pathway, THP1-Dual™ cells; assay: STING reporter assay in THP1-Dual cells, NF-κB pathway (SEAP, QUANTI-Blue); assay type: cell-based, human; settings: THP1-Dual cells, 10% human plasma, 20 hours, SEAP, 100% activation = 100 μM cGAMP, read-out: NFkB (EC50 μM)
Description: as §1, §2, §3, §4

SMILES | EC50 ([1]; Homo sapiens, THP1-Dual, 20 h) [µM] | EC50 ([2]; Homo sapiens, THP1-Dual, 20 h) [µM] | EC50 [2] [µM] | EC50 [1] [µM]
Cc1cc(C(=O)O[C@H](C)C(F)(F)F)c2oc(CNC(=O)c3cnn4cccnc34)cc2c1 [EXAMPLE 271, (R)-1,1,1-Trifluoropropan-2-yl 5-methyl-2-((pyrazolo[1,5-a]pyrimidine-3-carboxamido)methyl)-benzofuran-7-carboxylate] | 0.8 | 0.91 | – | –
CCOC(OC(=O)c1cc(F)cc2cc(CNC(=O)c3cnn4cccnc34)oc12)C(F)F (single isomer, unassigned) [EXAMPLE 323, 1-Ethoxy-2,2-difluoroethyl 5-fluoro-2-((pyrazolo[1,5-a]pyrimidine-3-carboxamido)methyl)benzofuran-7-carboxylate] | 0.75 | – | 0.7 | –
Cc1cc(C(=O)OC2CC(F)(F)C2)c2oc(CNC(=O)c3cnn4cccnc34)cc2c1 [EXAMPLE 275, 3,3-Difluorocyclobutyl 5-methyl-2-((pyrazolo[1,5-a]pyrimidine-3-carboxamido)methyl)-benzofuran-7-carboxylate] | 0.94 | 0.72 | – | –
O=C(OCC(F)(F)F)c1cc(Cl)cc2c(Cl)c(CNC(=O)c3cnn4cccnc34)oc12 [EXAMPLE 294, 2,2,2-Trifluoroethyl 3,5-dichloro-2-((pyrazolo[1,5-a]pyrimidine-3-carboxamido)methyl)benzofuran-7-carboxylate] | 0.8 | 0.93 | – | –
O=C(OC1CCCCC1)c1cc(Cl)cc2cc(CNC(=O)c3cnn4cccnc34)oc12 [EXAMPLE 244, Cyclohexyl 5-chloro-2-((pyrazolo[1,5-a]pyrimidine-3-carboxamido)methyl)benzofuran-7-carboxylate] | 2 | 1.9 | – | –
COC(=O)c1cc(Cl)cc2cc(CNC(=O)c3cc(N)ccn3)oc12 [Example 53, Methyl 2-((4-aminopicolinamido)methyl)-5-chlorobenzofuran-7-carboxylate] | 22 | 27 | – | –
O=C(OC1CC1)c1cccc2cc(CN3CCc4ccncc4C3=O)oc12 [EXAMPLE 207, Cyclopropyl 2-((1-oxo-3,4-dihydro-2,7-naphthyridin-2(1H)-yl)methyl)benzofuran-7-carboxylate] | 9.2 | 17 | – | –
O=C(OCC(F)(F)F)c1cc(Cl)cc2cc(CN3CCc4ccncc4C3=O)oc12 [EXAMPLE 370, 2,2,2-Trifluoroethyl 5-chloro-2-((1-oxo-3,4-dihydro-2,7-naphthyridin-2(1H)-yl)methyl)benzofuran-7-carboxylate] | 13 | 16 | – | –
COC(OC(=O)c1cc(C(F)(F)F)cc2cc(CNC(=O)c3cnn4cccnc34)oc12)C(F)(F)F (single isomer, unassigned) [EXAMPLE 352, 2,2,2-Trifluoro-1-methoxyethyl 2-((pyrazolo[1,5-a]pyrimidine-3-carboxamido)methyl)-5-(trifluoromethyl)benzofuran-7-carboxylate] | – | – | 3.4 | 1.9
COC(=O)c1ccc(C)c2cc(CNC(=O)c3cnn4cccnc34)oc12 [EXAMPLE 31, Methyl 4-methyl-2-((pyrazolo[1,5-a]pyrimidine-3-carboxamido)methyl)benzofuran-7-carboxylate] | 1.1 | 1.6 | – | –
COC(=O)c1cc(Cl)cc2cc(CNC(=O)c3c(N)nn4cccnc34)oc12 [Example 63, Methyl 2-((2-aminopyrazolo[1,5-a]pyrimidine-3-carboxamido)methyl)-5-chlorobenzofuran-7-carboxylate] | 10 | 16 | – | –
COC(=O)c1cc(C)cc2cc(CNC(=O)c3cncc4cccnc34)oc12 [Example 92, methyl 2-((1,6-naphthyridine-8-carboxamido)methyl)-5-methylbenzofuran-7-carboxylate] | 0.8 | 0.81 | – | –
CC(F)(F)COC(=O)c1cccc2cc(CN3CCc4ccncc4C3=O)oc12 [EXAMPLE 212, 2,2-Difluoropropyl 2-((1-oxo-3,4-dihydro-2,7-naphthyridin-2(1H)-yl)methyl)benzofuran-7-carboxylate] | 52 | 58 | – | –
COC(=O)c1ccc(C)c2cc(Cn3ccc4ccncc4c3=O)oc12 [EXAMPLE 32] | 3.5 | 3.4 | – | –
Cc1cc(C(=O)O)c2oc(C(C)NC(=O)c3cnn4cccnc34)cc2c1 (racemic) [EXAMPLE 186, 5-Methyl-2-(1-(pyrazolo[1,5-a]pyrimidine-3-carboxamido)ethyl)benzofuran-7-carboxylic acid] | – | – | > 100 | 84
Cc1cc(C(=O)O[C@@H](C)C(F)(F)F)c2oc(CNC(=O)c3cnn4cccnc34)c(Cl)c2c1 [EXAMPLE 301, (S)-1,1,1-Trifluoropropan-2-yl 3-chloro-5-methyl-2-((pyrazolo[1,5-a]pyrimidine-3-carboxamido)methyl)benzofuran-7-carboxylate] | 2.1 | 2.7 | – | –
COC(=O)c1cc(Cl)cc2cc(CNC(=O)c3cnn4cc(Cl)cnc34)oc12 [Example 57, Methyl 5-chloro-2-((6-chloropyrazolo[1,5-a]pyrimidine-3-carboxamido)methyl) benzofuran-7-carboxylate] | – | – | 8.1 | 9.5
COC(OC(=O)c1cc(C)cc2cc(CNC(=O)c3cnn4cccnc34)oc12)C(F)(F)F (single isomer, unassigned) [EXAMPLE 343, 2,2,2-Trifluoro-1-methoxyethyl 5-methyl-2-((pyrazolo[1,5-a]pyrimidine-3-carboxamido)methyl)benzofuran-7-carboxylate] | 0.73 | 0.76 | – | –
CC(NC(=O)c1cnn2cccnc12)c1cc2cc(F)cc(C(=O)OCC(F)(F)F)c2o1 (single isomer, unassigned) [EXAMPLE 328, 2,2,2-Trifluoroethyl 5-fluoro-2-(1-(pyrazolo[1,5-a]pyrimidine-3-carboxamido)ethyl)benzofuran-7-carboxylate] | – | – | 1.5 | 1.3
O=C(OC1CC(c2ccc(F)cc2)C1)c1cc(Cl)cc2cc(CNC(=O)c3cnn4cccnc34)oc12 (single isomer, unassigned) [EXAMPLE 334, 3-(4-Fluorophenyl)cyclobutyl 5-chloro-2-((pyrazolo[1,5-a]pyrimidine-3-carboxamido)methyl)benzofuran-7-carboxylate] | – | – | 23 | 16
COC(=O)c1cc(C)cc2c(C(F)(F)F)c(CNC(=O)c3cnn4cccnc34)oc12 [EXAMPLE 123, Methyl 5-methyl-2-((pyrazolo[1,5-a]pyrimidine-3-carboxamido)methyl)-3-(trifluoromethyl)benzofuran-7-carboxylate] | 4.3 | 5.9 | – | –
O=C(OCC(F)F)c1cc(F)cc2cc(CNC(=O)c3cnn4cccnc34)oc12 [EXAMPLE 235, 2,2-Difluoroethyl 5-fluoro-2-((pyrazolo[1,5-a]pyrimidine-3-carboxamido)methyl)benzofuran-7-carboxylate] | 0.69 | 0.68 | – | –
COC(=O)c1ccc(O)c2cc(CNC(=O)c3cnn4cccnc34)oc12 [EXAMPLE 34, Methyl 4-hydroxy-2-((pyrazolo[1,5-a]pyrimidine-3-carboxamido)methyl)benzofuran-7-carboxylate] | 79 | > 100 | – | –
CCCn1cncc(C(=O)NCc2cc3cc(Cl)cc(C(=O)OC)c3o2)c1=O [Example 67, Methyl 5-chloro-2-((1-propyl-6-oxo-1,6-dihydropyrimidine-5-carboxamido)methyl)benzofuran-7-carboxylate] | 20 | 32 | – | –
COC(=O)c1cc(C)cc2c(Cl)c(C(C)NC(=O)c3cnn4cccnc34)oc12 (single isomer, unassigned) [EXAMPLE 120, Methyl-3-chloro-5-methyl-2-(1-(pyrazolo[1,5-a]pyrimidine-3-carboxamido)ethyl)benzofuran-7-carboxylate] | 2.7 | 3.2 | – | –
COC(=O)c1cc(Cl)cc2cc(Cn3ccc4ccncc4c3=O)oc12 [Example 78, Methyl 5-chloro-2-((1-oxo-2,7-naphthyridin-2(1H)-yl)methyl)benzofuran-7-carboxylate] | 3.4 | 3.7 | – | –
O=C(NO)c1cc(Cl)cc2cc(CNC(=O)c3cnn4cccnc34)oc12 [EXAMPLE 405, N-((5-Chloro-7-(hydroxycarbamoyl)benzofuran-2-yl)methyl)pyrazolo[1,5-a]pyrimidine-3-carboxamide] | 30 | 61 | – | –
COC(=O)c1cc(C)cc2c(Cl)c(CNC(=O)c3cnn4cccnc34)oc12 [EXAMPLE 117, Methyl 3-chloro-5-methyl-2-((pyrazolo[1,5-a]pyrimidine-3-carboxamido)methyl)benzofuran-7-carboxylate] | 0.2 | 0.28 | – | –
